# Laboratory results as given in patent US11661400B2, “NADPH oxidase inhibitors, pharmaceutical composition comprising the same, and application thereof” (TAIWANJ PHARMACEUTICALS CO., LTD., priority 2018, dated 2023).
# Legend:
# NOX1 = biological target: T1, NOX1 (Homo sapiens, UniProt Q9Y5S8); assay: NOX1 HT29 cell-based assay (luminol/HRP luminescence); settings: HT29 cells, DMSO = 0%, GKT137831 = 100%
# T1 construct: endogenous in cells; host or cells: HT29
# T1 sequence (Q9Y5S8 1-564): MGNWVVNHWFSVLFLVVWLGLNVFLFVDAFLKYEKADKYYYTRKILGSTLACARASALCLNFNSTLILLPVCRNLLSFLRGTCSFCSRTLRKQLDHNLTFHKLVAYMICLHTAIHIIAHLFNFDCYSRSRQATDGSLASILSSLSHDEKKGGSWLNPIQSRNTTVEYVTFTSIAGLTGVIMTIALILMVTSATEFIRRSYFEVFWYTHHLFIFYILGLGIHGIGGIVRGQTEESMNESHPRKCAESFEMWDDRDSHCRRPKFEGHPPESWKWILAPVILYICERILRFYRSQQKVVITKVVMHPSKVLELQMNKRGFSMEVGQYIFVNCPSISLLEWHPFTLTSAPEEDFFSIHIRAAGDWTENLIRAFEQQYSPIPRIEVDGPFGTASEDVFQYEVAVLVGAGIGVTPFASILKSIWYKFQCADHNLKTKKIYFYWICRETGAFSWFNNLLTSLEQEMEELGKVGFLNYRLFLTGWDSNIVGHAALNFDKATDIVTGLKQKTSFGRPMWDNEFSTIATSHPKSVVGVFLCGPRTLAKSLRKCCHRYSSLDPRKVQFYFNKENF
# T1 sequence (P13498 2-195 partner limits assumed): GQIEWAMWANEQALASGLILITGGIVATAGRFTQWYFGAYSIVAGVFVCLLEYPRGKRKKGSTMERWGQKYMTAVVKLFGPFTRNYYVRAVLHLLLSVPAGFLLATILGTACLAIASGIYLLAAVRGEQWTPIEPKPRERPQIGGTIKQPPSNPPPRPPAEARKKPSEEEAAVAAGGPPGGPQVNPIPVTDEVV
# In short: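 HT29 cells (1-2×10^5 per well) pretreated 30-60 min at 37 °C with compound at 100 nM and 1000 nM final, in duplicate, 0.1% DMSO. ROS read as luminol (100 μM)/HRP (0.4 U) luminescence. Activity normalised to DMSO (0%) and GKT137831 (100%).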
# NOX4 = biological target: T2, NOX4 (Homo sapiens, UniProt Q9NPH5); assay: NOX4 HEK293 overexpression cell-based assay (Amplex Red H2O2); settings: HEK293 cells stably overexpressing NOX4, DMSO = 0, GKT137831 = 100
# T2 construct: expressed in transfected cells
# T2 sequence (Q9NPH5 1-578): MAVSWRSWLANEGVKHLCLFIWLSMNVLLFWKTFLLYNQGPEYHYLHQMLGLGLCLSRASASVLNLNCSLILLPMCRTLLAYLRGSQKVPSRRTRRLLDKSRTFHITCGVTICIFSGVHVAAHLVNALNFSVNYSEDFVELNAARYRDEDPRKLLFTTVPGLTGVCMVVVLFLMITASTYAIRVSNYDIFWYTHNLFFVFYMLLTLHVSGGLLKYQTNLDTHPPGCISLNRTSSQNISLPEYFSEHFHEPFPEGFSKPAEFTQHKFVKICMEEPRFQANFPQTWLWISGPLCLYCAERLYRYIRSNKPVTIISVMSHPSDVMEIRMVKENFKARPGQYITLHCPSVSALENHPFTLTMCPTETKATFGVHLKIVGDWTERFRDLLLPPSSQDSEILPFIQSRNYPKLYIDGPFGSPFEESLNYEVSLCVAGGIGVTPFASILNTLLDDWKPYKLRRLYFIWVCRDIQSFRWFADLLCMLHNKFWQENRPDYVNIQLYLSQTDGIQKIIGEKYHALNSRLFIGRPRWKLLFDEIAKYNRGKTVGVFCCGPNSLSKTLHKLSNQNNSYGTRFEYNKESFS
# T2 sequence (P13498 2-195 partner limits assumed): T1 sequence (P13498 2-195 partner limits assumed)
# In short: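 HEK293 cells stably overexpressing NOX4 (3×10^4) preincubated 30 min at 37° C with compound in KRPG buffer, then mixed with Amplex Red reagent solution (50 μM Amplex Red, 0.1 units/mL HRP) for 90 min at 37° C in the dark. Supernatant fluorescence read at 530/590 nm; DMSO set to 0 and GKT137831 to 100.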
# NOX2 = biological target: T3, NOX2 (Homo sapiens, UniProt P04839); assay: NOX2 HL60 cell-based assay (PMA oxidative burst, L012 chemiluminescence); settings: DMSO-differentiated HL-60 cells, PMA-stimulated
# T3 construct: HL-60 cells, rich in NOX2 expression; endogenous in cells; host or cells: DMSO-differentiated HL-60
# T3 sequence (P04839 2-570 limits assumed): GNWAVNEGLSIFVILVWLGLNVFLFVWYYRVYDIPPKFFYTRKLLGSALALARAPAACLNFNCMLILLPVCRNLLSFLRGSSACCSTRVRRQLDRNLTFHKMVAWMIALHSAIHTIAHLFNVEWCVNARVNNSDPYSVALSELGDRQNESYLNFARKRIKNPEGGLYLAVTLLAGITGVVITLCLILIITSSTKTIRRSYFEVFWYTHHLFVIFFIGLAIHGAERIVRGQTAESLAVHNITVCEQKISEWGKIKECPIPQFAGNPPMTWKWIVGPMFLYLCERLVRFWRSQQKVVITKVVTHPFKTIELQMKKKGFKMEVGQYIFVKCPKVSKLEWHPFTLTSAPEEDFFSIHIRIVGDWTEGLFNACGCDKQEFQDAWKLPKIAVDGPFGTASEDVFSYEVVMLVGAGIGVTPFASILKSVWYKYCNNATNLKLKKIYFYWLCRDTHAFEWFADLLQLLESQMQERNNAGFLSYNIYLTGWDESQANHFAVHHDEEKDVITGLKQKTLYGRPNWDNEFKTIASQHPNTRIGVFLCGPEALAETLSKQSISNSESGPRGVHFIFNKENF
# T3 sequence (P13498 2-195 partner limits assumed): T1 sequence (P13498 2-195 partner limits assumed)
# In short: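 DMSO-differentiated HL-60 cells (2.5×10^5/well) with 100 μM L012 preincubated with compound 30-60 min at 37 °C in the dark. Oxidative burst triggered by 10 ng/mL PMA; superoxide chemiluminescence read every 5 min for 60 min.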
Structure (SMILES),% Inhibition NOX1 (NOX1; 1000 nM),"inhibition at 0.1 µM (NOX1; HT-29, 100 nM) [%]","% Inhibition NOX4 (NOX4; 100 nM, 0.1 µM)",% Inhibition NOX4 (NOX4; 1000 nM),% Inhibition NOX2 (NOX2; 100 nM),% Inhibition NOX2 (NOX2; 1000 nM),% Inhibition NOX1 (NOX1; 100 nM),% Inhibition NOX4 (NOX4; 100 nM),"% Inhibition NOX4 (NOX4; 1000 nM, 1 µM)","% Inhibition NOX2 (NOX2; 100 nM, 0.1 µM)","% Inhibition NOX2 (NOX2; 1000 nM, 1 µM)","inhibition at 0.1 µM (NOX2; HL-60, 100 nM) [%]","inhibition at 1 µM (NOX1; HT-29, 1000 nM) [%]","inhibition at 0.1 µM (NOX4; HEK293, 100 nM) [%]","inhibition at 1 µM (NOX2; HL-60, 1000 nM) [%]"
COc1cc2[nH]c(-c3ccc(Cl)cc3)c(O)c(=O)c2cc1OC [Compound 45],A (the percent of inhibition of NOX by the compounds is larger than or equals to 80%),≤ 19,C (the percent of inhibition of NOX by the compounds ranges from 2000 to 49%),B (the percent of inhibition of NOX by the compounds ranges from 50% o to 79% o),D (the percent of inhibition of NOX by the compounds is smaller than or equals to 19% o),D (the percent of inhibition of NOX by the compounds is smaller than or equals to 19% o),–,–,–,–,–,–,–,–,–
COc1cc2[nH]c(-c3ccccc3Cl)c(O)c(=O)c2cc1OC [Compound 46],A (the percent of inhibition of NOX by the compounds is larger than or equals to 80%),–,–,–,D (the percent of inhibition of NOX by the compounds is smaller than or equals to 19% o),A (the percent of inhibition of NOX by the compounds is larger than or equals to 80%),A (the percent of inhibition of NOX by the compounds is larger than or equals to 80%),B (the percent of inhibition of NOX by the compounds ranges from 50% o to 79% o),B (the percent of inhibition of NOX by the compounds ranges from 50% o to 79% o),–,–,–,–,–,–
COc1cc2[nH]c(-c3ccccc3OC(F)(F)F)c(O)c(=O)c2cc1OC [Compound 48],A (the percent of inhibition of NOX by the compounds is larger than or equals to 80%),–,–,–,–,–,A (the percent of inhibition of NOX by the compounds is larger than or equals to 80%),C (the percent of inhibition of NOX by the compounds ranges from 2000 to 49%),A (the percent of inhibition of NOX by the compounds is larger than or equals to 80%),C (the percent of inhibition of NOX by the compounds ranges from 2000 to 49%),B (the percent of inhibition of NOX by the compounds ranges from 50% o to 79% o),–,–,–,–
COc1cc2[nH]c(-c3ccc(Cl)cc3Cl)c(O)c(=O)c2cc1OC [Compound 49],A (the percent of inhibition of NOX by the compounds is larger than or equals to 80%),–,–,B (the percent of inhibition of NOX by the compounds ranges from 50% o to 79% o),–,A (the percent of inhibition of NOX by the compounds is larger than or equals to 80%),A (the percent of inhibition of NOX by the compounds is larger than or equals to 80%),C (the percent of inhibition of NOX by the compounds ranges from 2000 to 49%),–,–,–,≤ 19,–,–,–
COc1cc2[nH]c(-c3ccccc3OC)c(O)c(=O)c2cc1OC.Cl [Compound 51],–,≥ 80,–,B (the percent of inhibition of NOX by the compounds ranges from 50% o to 79% o),C (the percent of inhibition of NOX by the compounds ranges from 2000 to 49%),–,–,–,–,–,–,–,≥ 80,≤ 19,≥ 80
COc1cc2[nH]c(-c3ccccc3OC(F)(F)F)c(O)c(=O)c2cc1OC.Cl [Compound 52],A (the percent of inhibition of NOX by the compounds is larger than or equals to 80%),–,–,B (the percent of inhibition of NOX by the compounds ranges from 50% o to 79% o),C (the percent of inhibition of NOX by the compounds ranges from 2000 to 49%),B (the percent of inhibition of NOX by the compounds ranges from 50% o to 79% o),A (the percent of inhibition of NOX by the compounds is larger than or equals to 80%),C (the percent of inhibition of NOX by the compounds ranges from 2000 to 49%),–,–,–,–,–,–,–
